Data published in US20070254863A1 (priority 2006, published 2007).
Read-outs that look alike come from different tables or passages of the source.

How the values were obtained:
[1] = biological target: human cannabinoid CB2 receptor (Homo sapiens, UniProt P34972); experiment: biochemical; format: binding
Procedure: 3. In Vitro Binding Affinity of the Test Compounds to CB2 Receptors
After incubation of a freshly prepared cell membrane preparation with the [^3H]-ligand, with or without the addition of the compounds described herein, separation of bound and free ligand is performed by filtration over glass-fiber filters. Radioactivity on the filter is measured by liquid scintillation counting.

[2] = biological target: T1, hamster SUR1 (Cricetus cricetus, UniProt Q09427); experiment: In vitro binding affinity to rodent KATP channels: SUR1 ([3H]glibenclamide displacement, COS cell membranes); conditions: hamster SUR1 in COS cell membranes; read-out: Affinity to SUR 1 (converted)
T1 construct: expressed in transfected cells; host or cells: COS-1 cells, transient (pcDNA vector)

[3] = system: rat perifused pancreatic islets; experiment: KATP opening effects through insulin secretion in rat perifused pancreatic islets; format: cell-based; conditions: 11 mM glucose; for % Inhibition 0-30 (insulin secretion): 0-30 minutes; for % Inhibition 30-60 (insulin secretion): 30-60 minutes
Procedure: Determination of the KATP Opening Effects of Compounds Through Insulin Secretion in Rat Perifused Pancreatic Islets
The animals were maintained on a 12 h light-dark cycle (lights on 06.00-18.00 h) with free access to standard rodent diet (B&K Universal Ltd standard rat and mouse diet (BK 001P), Beekay Feeds, B&K Universal Ltd, Hull, East Riding of Yorkshire) and tap water. The rats were conditioned to this environment for at least one week before experimentation.
Experimental procedures: After the rats were sacrificed, the branch of the bile duct leading to the liver and the duodenal end of the duct in the pancreas were clamped and the pancreas distended by injection of ice-cold 0.9 mg/ml collagenase solution into the bile duct. […] Following incubation, 10 ml of cold buffer was added and the suspension shaken vigorously by hand for 1 min. The islets were allowed to settle for 5 min on ice and washed three times using ice-cold buffer. Well-formed and good-sized islets from three rats were hand-picked (under a low power microscope) and pooled and a final selection of islet transferred to the perifusion apparatus.
Two experiments were performed in parallel in two identical, independent sets of perifusion apparatus each consisting of sufficient number of chambers. Each chamber was loaded with 20 hand-picked islets. Islets were perifused for an initial 30 min period in media containing 4 mM glucose. Perifusate was then collected at 2 min intervals for the remainder of the experiment. […] Perifusate fractions were stored at −75° C. until required for insulin assay. Insulin content of fractions were assayed using a 96-well ELISA assay (Mercodia). Initial insulin assays were performed in triplicate on three pooled fractions from each chamber.
Data were initially expressed as a simple mean of the three experiments for insulin secretion (pg/islet/min) and multiple t-tests (against the corresponding vehicle time period) used to determine potential significant effects of treatments. Alternatively, data were also calculated as a % vehicle effect for each experimental day. This latter approach was deemed to be the more powerful analysis as it corrected for the day to day variation in insulin release from the islets.

[4] = biological target: rat SUR2A (Rattus norvegicus, UniProt Q63563); experiment: In vitro binding affinity to rodent KATP channels: SUR2A ([3H]P1075 / [3H]glibenclamide displacement, COS cell membranes)
Procedure, shortened: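 COS-cell membranes transiently expressing rat SUR2A incubated 1 h at room temperature in 50 mM Tris pH 7.4, ~0.7 mM free Mg2+, with 3 nM [3H]P1075 (wild type) or [3H]glibenclamide (SUR2AY1205S); filtration read-out. Ki from IC50, reported as pKi; 9-15 concentrations per curve.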

[5] = cloned human CB2 receptor expressed in CHO cells, read-out: Affinity to CB2 (converted)

rat SUR2A, sequence (Q63563 whole entry): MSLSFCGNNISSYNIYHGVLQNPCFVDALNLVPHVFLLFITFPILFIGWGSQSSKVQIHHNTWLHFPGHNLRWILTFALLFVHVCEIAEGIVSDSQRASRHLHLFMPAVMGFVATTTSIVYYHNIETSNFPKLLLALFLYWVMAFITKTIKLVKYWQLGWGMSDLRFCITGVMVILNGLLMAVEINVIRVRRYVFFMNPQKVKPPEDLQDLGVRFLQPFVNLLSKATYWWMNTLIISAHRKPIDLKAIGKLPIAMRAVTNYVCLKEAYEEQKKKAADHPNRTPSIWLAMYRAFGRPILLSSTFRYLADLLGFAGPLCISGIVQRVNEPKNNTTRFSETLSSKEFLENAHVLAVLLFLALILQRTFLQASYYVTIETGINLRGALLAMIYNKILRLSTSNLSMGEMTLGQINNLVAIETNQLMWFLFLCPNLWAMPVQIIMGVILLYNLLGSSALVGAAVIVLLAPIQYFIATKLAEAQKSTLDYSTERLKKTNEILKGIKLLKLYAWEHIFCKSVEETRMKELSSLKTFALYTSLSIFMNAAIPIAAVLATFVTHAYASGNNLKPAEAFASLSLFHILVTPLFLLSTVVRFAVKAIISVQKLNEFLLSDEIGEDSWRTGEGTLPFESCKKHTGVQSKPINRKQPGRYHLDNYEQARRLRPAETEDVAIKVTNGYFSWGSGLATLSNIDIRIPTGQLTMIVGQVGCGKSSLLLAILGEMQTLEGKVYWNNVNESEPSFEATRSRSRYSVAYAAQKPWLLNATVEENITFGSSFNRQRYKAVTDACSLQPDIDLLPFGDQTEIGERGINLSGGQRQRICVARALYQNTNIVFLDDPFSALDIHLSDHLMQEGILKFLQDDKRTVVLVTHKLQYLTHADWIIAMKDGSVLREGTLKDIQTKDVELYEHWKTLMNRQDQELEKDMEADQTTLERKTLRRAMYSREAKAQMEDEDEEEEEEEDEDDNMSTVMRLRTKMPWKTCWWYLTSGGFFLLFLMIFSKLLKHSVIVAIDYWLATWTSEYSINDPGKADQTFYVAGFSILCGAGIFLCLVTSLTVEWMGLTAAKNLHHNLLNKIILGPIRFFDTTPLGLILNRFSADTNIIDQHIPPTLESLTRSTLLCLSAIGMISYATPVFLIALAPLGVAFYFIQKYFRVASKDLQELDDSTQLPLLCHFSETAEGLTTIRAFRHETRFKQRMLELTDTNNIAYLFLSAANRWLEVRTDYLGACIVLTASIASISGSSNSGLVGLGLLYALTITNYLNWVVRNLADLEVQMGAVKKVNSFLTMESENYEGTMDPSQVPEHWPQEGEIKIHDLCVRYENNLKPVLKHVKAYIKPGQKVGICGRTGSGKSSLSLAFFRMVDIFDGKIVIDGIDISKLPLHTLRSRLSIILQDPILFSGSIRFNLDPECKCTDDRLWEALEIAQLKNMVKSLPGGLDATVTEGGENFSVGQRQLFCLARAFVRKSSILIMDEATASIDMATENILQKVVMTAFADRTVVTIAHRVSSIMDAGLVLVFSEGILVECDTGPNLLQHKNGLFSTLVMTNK
human cannabinoid CB2 receptor, sequence (P34972 whole entry): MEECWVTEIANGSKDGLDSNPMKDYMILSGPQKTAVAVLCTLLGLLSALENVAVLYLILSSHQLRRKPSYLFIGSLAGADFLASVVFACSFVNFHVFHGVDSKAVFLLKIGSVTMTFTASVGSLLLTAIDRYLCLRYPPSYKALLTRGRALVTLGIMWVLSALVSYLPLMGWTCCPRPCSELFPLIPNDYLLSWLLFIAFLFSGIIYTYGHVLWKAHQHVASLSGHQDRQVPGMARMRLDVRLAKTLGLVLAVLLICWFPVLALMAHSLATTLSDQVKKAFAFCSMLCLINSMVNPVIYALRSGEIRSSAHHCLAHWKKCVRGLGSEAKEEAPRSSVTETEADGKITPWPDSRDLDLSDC
T1 sequence (Q09427 whole entry): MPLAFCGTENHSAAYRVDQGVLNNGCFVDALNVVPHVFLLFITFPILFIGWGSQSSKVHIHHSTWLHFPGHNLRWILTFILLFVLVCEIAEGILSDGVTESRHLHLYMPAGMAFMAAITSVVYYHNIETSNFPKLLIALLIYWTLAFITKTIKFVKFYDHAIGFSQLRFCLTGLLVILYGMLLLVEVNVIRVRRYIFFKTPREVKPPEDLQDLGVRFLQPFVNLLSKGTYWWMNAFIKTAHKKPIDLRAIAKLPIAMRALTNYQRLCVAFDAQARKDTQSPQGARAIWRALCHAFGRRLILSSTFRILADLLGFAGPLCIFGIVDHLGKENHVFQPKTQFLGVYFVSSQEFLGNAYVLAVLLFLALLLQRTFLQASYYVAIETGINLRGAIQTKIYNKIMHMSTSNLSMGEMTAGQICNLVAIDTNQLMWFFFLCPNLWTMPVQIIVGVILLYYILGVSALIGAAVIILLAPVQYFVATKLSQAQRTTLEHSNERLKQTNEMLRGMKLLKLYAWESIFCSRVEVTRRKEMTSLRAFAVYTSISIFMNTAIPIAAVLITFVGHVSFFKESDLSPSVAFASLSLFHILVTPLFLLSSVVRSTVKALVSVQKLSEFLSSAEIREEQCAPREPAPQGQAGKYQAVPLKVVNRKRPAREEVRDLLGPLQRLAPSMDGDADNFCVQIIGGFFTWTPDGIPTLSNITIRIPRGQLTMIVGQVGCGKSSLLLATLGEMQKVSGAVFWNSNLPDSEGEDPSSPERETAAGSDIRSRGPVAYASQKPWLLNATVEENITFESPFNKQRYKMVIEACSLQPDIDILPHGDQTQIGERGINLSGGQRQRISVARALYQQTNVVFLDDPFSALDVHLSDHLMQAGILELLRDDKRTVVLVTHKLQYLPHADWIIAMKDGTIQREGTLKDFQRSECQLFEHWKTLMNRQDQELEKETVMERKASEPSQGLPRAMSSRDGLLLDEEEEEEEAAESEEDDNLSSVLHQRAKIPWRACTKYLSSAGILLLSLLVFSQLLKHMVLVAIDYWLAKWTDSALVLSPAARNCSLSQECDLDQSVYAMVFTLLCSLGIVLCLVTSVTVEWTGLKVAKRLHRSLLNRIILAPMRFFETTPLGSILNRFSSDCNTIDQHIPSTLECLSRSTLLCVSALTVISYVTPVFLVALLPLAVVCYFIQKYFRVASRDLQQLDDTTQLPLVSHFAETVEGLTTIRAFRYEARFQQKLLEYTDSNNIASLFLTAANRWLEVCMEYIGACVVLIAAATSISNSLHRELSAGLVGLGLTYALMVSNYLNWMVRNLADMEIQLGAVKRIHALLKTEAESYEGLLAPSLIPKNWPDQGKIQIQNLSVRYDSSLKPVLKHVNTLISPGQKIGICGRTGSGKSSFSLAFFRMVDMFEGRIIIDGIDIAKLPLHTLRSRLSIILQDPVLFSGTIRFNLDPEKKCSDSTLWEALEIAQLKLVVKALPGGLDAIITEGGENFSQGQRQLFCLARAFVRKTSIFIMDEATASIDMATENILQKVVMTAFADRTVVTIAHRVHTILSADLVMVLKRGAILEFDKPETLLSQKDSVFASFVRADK

| SMILES | Ki [1, 5] | Ki [2] | % Inhibition 0-30 (insulin secretion) [3] | % Inhibition 30-60 (insulin secretion) [3] | Ki [1] | pKi [4] |
| --- | --- | --- | --- | --- | --- | --- |
| CN1CCCCC1Cn1cc(C(=O)c2cc([N+](=O)[O-])ccc2I)c2ccccc21 (stereo not drawn) [AM-1241, (2-Iodo-5-nitro-phenyl)-[1-(1-methyl-piperidin-2-ylmethyl)-1H-indol-3-yl]-methanone, reference compound] | 15.8 nM | 3980 nM | 97% | 74% |  |  |
| CCc1c(C(=O)NN2CCCCC2)nc(-c2ccccc2Cl)n1-c1ccc(Cl)cc1 [1-(4-Chloro-phenyl)-2-(2-chloro-phenyl)-5-ethyl-1H-imidazole-4-carboxylic acid piperidin-1-ylamide, reference compound] |  |  | 59% | 45% | 1000 nM | 4.8 |
| Cc1c(C(=O)NN2CCCCC2)nn(-c2ccc(Cl)cc2Cl)c1-c1ccc(Cl)cc1 [Rimonabant, 5-(4-Chloro-phenyl)-1-(2,4-dichloro-phenyl)-4-methyl-1H-pyrazole-3-carboxylic acid piperidin-1-ylamide, reference compound] |  | 5010 nM | 22% | 18% |  |  |
| CN/C(=N\S(=O)(=O)c1ccc(C(F)(F)F)cc1)N1CC(c2cccnc2)C(c2ccc(Cl)cc2)=N1 (stereo not drawn) [N-([3-(4-Chloro-phenyl)-4-pyridin-3-yl-4,5-dihydro-pyrazol-1-yl]-methylamino-methylene}-4-trifluoromethyl-benzenesulfonamide] |  | 501 nM | 58% | 31% |  | 4.9 |
| CON/C(=N\S(=O)(=O)c1ccc(Cl)cc1)N1C[C@H](c2cccc(F)c2)C(c2ccc(Cl)cc2)=N1 (stereo in doubt) [4-Chloro-N-{[3-(4-chloro-phenyl)-4-(3-fluoro-phenyl)-4,5-dihydro-pyrazol-1-yl]-methoxyamino-methylene}-benzenesulfonamide] |  |  | 90% | 95% |  |  |
| CN(C)CCNC(=NS(=O)(=O)N1CCCCC1)N1CC(c2ccccc2)C(c2ccc(Cl)cc2)=N1 (stereo not drawn) [Piperidine-1-sulfonic acid [3-(4-chloro-phenyl)-4-phenyl-4,5-dihydro-pyrazol-1-yl]-(2-dimethylamino-ethylamino)-methyleneamide] |  | 100000 nM | 71% | 64% |  | 4.0 |
| CCCCCCC(C)(C)c1ccc([C@@H]2C[C@H](O)CC[C@H]2CCCO)c(O)c1 (stereo in doubt) [CP55940, 5-(1,1-Dimethyl-heptyl)-2-[5-hydroxy-2-(3-hydroxy-propyl)-cyclohexyl]-phenol, reference compound] |  | 5010 nM | 91% | 56% |  |  |
| CN/C(=N\S(=O)(=O)c1ccc(Cl)cc1)N1C[C@H](c2ccccc2)C(c2ccc(Cl)cc2)=N1 |  | 501 nM | 42% | 22% |  |  |
| CN/C(=N\S(=O)(=O)c1ccc(Cl)cc1)N1C[C@@H](c2ccccc2)C(c2ccc(Cl)cc2)=N1 (stereo in doubt) [4-Chloro-N-{[3-(4-chloro-phenyl)-4-phenyl-4,5-dihydro-pyrazol-1-yl]-methylamino-methylene}-benzenesulfonamide] |  |  | 59% | 25% |  |  |
| CN/C(=N\S(=O)(=O)N(C)C)N1CC(c2cccc(F)c2)C(c2ccc(Cl)cc2)=N1 (stereo not drawn) [N-{[3-(4-Chloro-phenyl)-4-(3-fluoro-phenyl)-4,5-dihydro-pyrazol-1-yl]-methylamino-methylene}-N,N-dimethyl-sulfonamide] |  | 100 nM | 72% | 77% |  | 5.3 |
| CN/C(=N\S(=O)(=O)N1CCOCC1)N1CC(c2ccccc2)C(c2ccc(Cl)cc2)=N1 (stereo not drawn) [drawing 118, Morpholine-4-sulfonic acid [3-(4-chloro-phenyl)-4-phenyl-4,5-dihydro-pyrazol-1-yl]-methylamino-methyleneamide] |  |  | 83% | 91% |  |  |
| CSc1c(C(=O)NN2CCCCC2)nc(-c2ccccc2Cl)n1-c1ccc(Cl)cc1 [1-(4-Chloro-phenyl)-2-(2-chloro-phenyl)-5-methylsulfanyl-1H-imidazole-4-carboxylic acid piperidin-1-ylamide] | 6310 nM | 6.31 nM | 56% | 36% |  |  |
| CNC(=NS(=O)(=O)N1CCCCC1)C1=NN(c2ccc(Cl)cc2)C(c2ccccc2)C1 (stereo not drawn) [Piperidine-1-sulfonic acid [1-(4-chloro-phenyl)-5-phenyl-4,5-dihydro-1H-pyrazol-3-yl]-methylamino-methyleneamide] |  | 794 nM | 84% | 47% |  | 4.5 |
| Cc1c(C(=O)c2cccc3ccccc23)c2cccc3c2n1[C@H](CN1CCOCC1)CO3 [R(+)-WIN55212-2, (2-Methyl-3-morpholin-4-ylmethyl-3,4-dihydro-5-oxa-2a-azacenaphthylen-1-yl)-naphthalen-1-yl-methanone, reference compound] |  | 39800 nM | 80% | 35% |  |  |
| Cc1c(C(=O)c2cccc3ccccc23)c2cccc3c2n1[C@H](CN1CCOCC1)CO3 [drawing 112, (2-Methyl-3-morpholin-4-ylmethyl-3,4-dihydro-5-oxa-2a-azacenaphthylen-1-yl)-naphthalen-1-yl-methanone, reference compound] |  |  | 69% | 40% |  |  |
